Our source for the Ki values is ChEMBL document CHEMBL1131561, “Peptidomimetic aminomethylene ketone inhibitors of interleukin-1 beta-converting enzyme (ICE)” (Bioorg Med Chem Lett, 1998).

By Ki is commonly meant a dissociation constant, usually derived from enzyme kinetics or from competition with a known ligand.

In the assay the target is T1, Caspase-1 (Homo sapiens, UniProt P29466).
T1 sequence (P29466 whole entry): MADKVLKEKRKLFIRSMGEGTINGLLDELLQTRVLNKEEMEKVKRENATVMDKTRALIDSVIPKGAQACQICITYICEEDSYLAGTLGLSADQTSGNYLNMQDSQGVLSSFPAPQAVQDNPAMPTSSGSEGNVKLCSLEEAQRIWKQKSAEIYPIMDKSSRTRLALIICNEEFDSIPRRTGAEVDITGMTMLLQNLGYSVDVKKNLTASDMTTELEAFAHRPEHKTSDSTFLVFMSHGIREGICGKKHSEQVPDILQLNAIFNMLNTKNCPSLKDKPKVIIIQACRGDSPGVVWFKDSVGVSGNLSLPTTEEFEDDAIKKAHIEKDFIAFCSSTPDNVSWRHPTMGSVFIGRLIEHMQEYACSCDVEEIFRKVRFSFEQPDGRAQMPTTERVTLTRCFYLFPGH
The assay can be described thus: Inhibition of human recombinant IL-1 beta converting enzyme.
With `CCC(C(=O)N[C@@H](CC(=O)O)C(=O)CNCCc1ccccc1)n1cccc(NC(=O)c2ccc3ccccc3c2)c1=O` (stereo not given in full), the inhibition constant (Ki) amounted to 0.37 nM.
To `CCC(C(=O)NC(CC(=O)O)C(=O)CN1CCN(C)CC1)n1cccc(NC(=O)c2ccc3ccccc3c2)c1=O` (stereo not given) belongs 62.5 nM.
Take `CCC(C(=O)N[C@@H](CC(=O)O)C(=O)CN(C)Cc1ccccc1)n1cccc(NC(=O)c2ccc3ccccc3c2)c1=O` (stereo not given in full): the Ki was 58 nM.
With `CCC(C(=O)NC(CC(=O)O)C(=O)CN1CCSCC1)n1cccc(NC(=O)c2ccc3ccccc3c2)c1=O` (stereo not given), the inhibition constant Ki stood at 11.2 nM.
To `CCC(C(=O)NC(CC(=O)O)C(=O)Cn1ccc(=O)cc1)n1cccc(NC(=O)c2ccc3ccccc3c2)c1=O` (stereo not given) belongs 395 nM; to `CCOC(=O)C1CCN(CC(=O)C(CC(=O)O)NC(=O)C(CC)n2cccc(NC(=O)c3ccc4ccccc4c3)c2=O)CC1` (stereo not given), 8 nM; to `CCC(C(=O)NC(CC(=O)O)C(=O)CN1CCOCC1)n1cccc(NC(=O)c2ccc3ccccc3c2)c1=O` (stereo not given), 45 nM.
To `CCCC(=O)NCC(=O)C(CC(=O)O)NC(=O)C(CC)n1cccc(NC(=O)c2ccc3ccccc3c2)c1=O` (stereo not given) belongs 81 nM; to `CCC(C(=O)N[C@@H](CC(=O)O)C(=O)CN[C@@H](Cc1ccccc1)C(N)=O)n1cccc(NC(=O)c2ccc3ccccc3c2)c1=O` (stereo not given in full), 78 nM; to `CCC(C(=O)NC(CC(=O)O)C(=O)CN1CCNCC1)n1cccc(NC(=O)c2ccc3ccccc3c2)c1=O` (stereo not given), 410 nM.
With `CCCCN(C)CC(=O)[C@H](CC(=O)O)NC(=O)C(CC)n1cccc(NC(=O)c2ccc3ccccc3c2)c1=O` (stereo not given in full), the Ki was determined as 3.1 nM.
To `CCC(C(=O)NC(CC(=O)O)C(=O)CNC(C)=O)n1cccc(NC(=O)c2ccc3ccccc3c2)c1=O` (stereo not given) belongs 117 nM.
For the compound `CCC(C(=O)N[C@@H](CC(=O)O)C(=O)CN(C)CCCC(N)=O)n1cccc(NC(=O)c2ccc3ccccc3c2)c1=O` (stereo not given in full), the Ki was 37 nM.
To `CCCCN(CC)CC(=O)[C@H](CC(=O)O)NC(=O)C(CC)n1cccc(NC(=O)c2ccc3ccccc3c2)c1=O` (stereo not given in full) belongs 2.3 nM; to `CCCCCCN(C)CC(=O)[C@H](CC(=O)O)NC(=O)C(CC)n1cccc(NC(=O)c2ccc3ccccc3c2)c1=O` (stereo not given in full), 1.79 nM.
`CCC(C(=O)NC(CC(=O)O)C(=O)CN1CCCCC1)n1cccc(NC(=O)c2ccc3ccccc3c2)c1=O` (stereo not given): the Ki came out at 4 nM.
The result for `CCC(C(=O)NC(CC(=O)O)C(=O)CNC(=O)c1ccccc1)n1cccc(NC(=O)c2ccc3ccccc3c2)c1=O` (stereo not given) reads 57.5 nM; that for `CCCCNCC(=O)[C@H](CC(=O)O)NC(=O)C(CC)n1cccc(NC(=O)c2ccc3ccccc3c2)c1=O` (stereo not given in full), 0.76 nM; that for `CCCCCC(=O)NCC(=O)C(CC(=O)O)NC(=O)C(CC)n1cccc(NC(=O)c2ccc3ccccc3c2)c1=O` (stereo not given), 34.3 nM.
`CCCCCCNCC(=O)[C@H](CC(=O)O)NC(=O)C(CC)n1cccc(NC(=O)c2ccc3ccccc3c2)c1=O` (stereo not given in full): the Ki worked out at 0.85 nM.
With `CCC(C(=O)N[C@@H](CC(=O)O)C(=O)CN(C)[C@@H](Cc1ccccc1)C(N)=O)n1cccc(NC(=O)c2ccc3ccccc3c2)c1=O` (stereo not given in full), the Ki was 255 nM.
To `CCC(C(=O)N[C@@H](CC(=O)O)C(=O)CN(C)CCc1ccccc1)n1cccc(NC(=O)c2ccc3ccccc3c2)c1=O` (stereo not given in full) belongs 4.8 nM; to `CCC(C(=O)N[C@@H](CC(=O)O)C(=O)CN[C@H](Cc1ccccc1)C(N)=O)n1cccc(NC(=O)c2ccc3ccccc3c2)c1=O` (stereo not given in full), 25 nM; to `CCCCCCN(CCCCCC)CC(=O)[C@H](CC(=O)O)NC(=O)C(CC)n1cccc(NC(=O)c2ccc3ccccc3c2)c1=O` (stereo not given in full), 2.39 nM.
To `CCC(C(=O)N[C@@H](CC(=O)O)C(=O)CNCCCc1ccccc1)n1cccc(NC(=O)c2ccc3ccccc3c2)c1=O` (stereo not given in full) belongs 1.15 nM.
As for `CCC(C(=O)NC(CC(=O)O)C(=O)CN1CCC(C(N)=O)CC1)n1cccc(NC(=O)c2ccc3ccccc3c2)c1=O` (stereo not given), the Ki is 11.6 nM.
To `CCC(C(=O)N[C@@H](CC(=O)O)C(=O)CNCc1ccccc1)n1cccc(NC(=O)c2ccc3ccccc3c2)c1=O` (stereo not given in full) belongs 3.05 nM; to `CCC(C(=O)NC(CC(=O)O)C(=O)CN1CCCC1)n1cccc(NC(=O)c2ccc3ccccc3c2)c1=O` (stereo not given), 7.3 nM.
The result for `CCC(C(=O)NC(CC(=O)O)C(=O)Cn1ccccc1=O)n1cccc(NC(=O)c2ccc3ccccc3c2)c1=O` (stereo not given) reads 1650 nM; that for `CCC(C(=O)N[C@@H](CC(=O)O)C(=O)CN(C)C)n1cccc(NC(=O)c2ccc3ccccc3c2)c1=O` (stereo not given in full), 22.8 nM.
